Molecules are shown by their SMILES.

We go through three compounds from patent publication US8222400B2, “Cyclodextrin compound modified with folic acid, process for production thereof, drug delivery agent for targeting drug delivery system, pharmaceutical composition, and imaging agent” (Nanodex Inc., priority 2007, dated 2012).

The subject of one series is Caco-2 tumor cells. The series is described as follows: SPR measurement of interaction with immobilized Caco-2 tumor cells. The format is binding, human. The conditions noted are these: SPR linear plot, varied concentrations, Caco-2 cells-immobilized cuvette. The method, then:
The SPR measurements of the exemplary compound 1 that bound to human colon cancer-derived Caco-2 cells and, as comparative target cells, normal rat liver cells were conducted by using the similar foregoing procedures. Each interaction was evaluated comparatively.
Experiment 6-1: The SPR measurements of the interaction with Caco-2 tumor cells The immobilization of Caco-2 cells was performed by the procedures similar to those of Example 5 <Immobilization of FBP>. Instead of using the solution that was used for the immobilization of FBP, the solution containing a suitable amount and concentration of the solution (phosphate buffer solution (pH 7.3)+0.85% NaCl) (manufactured by CORNING) containing Caco-2 cells was used as a fixative. In addition, to the Caco-2 cells-immobilized cuvette was added 200 μl of the exemplary compound 1 ([…]) that was dissolved in the phosphate buffer solution (pH 7.3)+0.85% NaCl. The SPR measurements were then carried out.
Experiment 7-1: The measurements of the interaction with Caco-2 tumor cells The immobilization of Caco-2 cells was performed by the procedures similar to those of Example 5 <Immobilization of FBP>. […]

The nature of series [1]: SPR measurement of drug-inclusion association with immobilized DXR. The format is binding. The following applies: SPR linear plot, DXR-immobilized cuvette. The method, then:
The capabilities of the CD compound of the invention were evaluated by the procedures similar to those of Experiment 7-1. An anticancer and antibiotic agent, doxorubicin (hereafter, referred to as “DXR”) was used as a drug.
Immobilization of DXR on the surface of an optical biosensor cuvette was performed by using the procedures similar to those of the above immobilization of FBP. A buffer with a different pH was used as a solvent for drugs.
An aminosilane group on the surface of the cuvette was reacted with a linker. 1 mM of the BS^3 solution/10 mM of phosphate buffer solution (pH 6.5) was used for the reaction. Then, an amino group of DXR was reacted with the other side of BS^3 linker. The steps were repeated one or more times until the response value became constant. An acetic anhydride-acetic acid solution (volume ratio 1:1) was injected into the cuvette to deactivate any remaining aminosilane groups and to block these. After the blocking, the solution was replaced by 10 mM acetic buffer (pH 5.3). The DXR solution (2 mg DXR/10 mM acetic buffer (pH5.3)) was added thereto. The reaction was carried out. […]
The kinetic behavior of the interaction of the exemplary compound 1 with DXR was measured by the procedures similar to those of Experiment 1. […]
Background: SPR reads the build-up and loss of mass on a sensor chip optically.

Series [2] has as its target folate receptor protein (FBP) overexpressed on the surface of cancer cells (Homo sapiens, UniProt P15328). The conditions noted are these: from reviews (Wang and Low 1998; Low et al. 2008); cited from earlier work.
Series [3] addresses T1, folate binding proteins (FBP) (Bos taurus, UniProt P02702).
T1 construct: purchased SIGMA
The series is described as follows: SPR measurement of association with immobilized folate binding protein (FBP). The conditions noted are these: each at 1.0×10^−6 M, 25.0° C. As to the method:
Specifically, the ligand (e.g., folate-binding proteins) is immobilized on a cuvette, and the analyte (e.g., the cyclodextrin (CD) compound of the invention) that is dissolved in a buffer solution is injected into the above cuvette. Evanescent wave and surface plasmon wave excite the surface plasmon when the angle of incidence on a prism is […] the angle of total reflection. The angle of incidence is measured. The angle of incidence is changed depending on the mass within the evanescent field depth of 600 nm. The amount of the changes can be observed and refers to the response (R). This angle of incidence is proportional to the mass of the adsorbed molecule. In other words, these mass changes can indicate the interaction. The reagents used for immobilization were obtained as follows: • 1 mM BS^3 solution: 2.9 mg of Bis(sulfosuccinimidyl) suberate (BS^3) was dissolved into 5 ml of 10 mM phosphate buffer solution (pH 7.2); • a solution used for immobilization of FBP: 1 mg of FBP (manufactured by SIGMA) was dissolved into 1 ml of 10 mM phosphate buffer solution (pH 7.2). […] A saturation curve shown in FIG. 1 was obtained (measured at a temperature of 25.0° C.). […] The association characteristics of each compound that bound to FBP were evaluated.

T1 sequence (P02702 20-234): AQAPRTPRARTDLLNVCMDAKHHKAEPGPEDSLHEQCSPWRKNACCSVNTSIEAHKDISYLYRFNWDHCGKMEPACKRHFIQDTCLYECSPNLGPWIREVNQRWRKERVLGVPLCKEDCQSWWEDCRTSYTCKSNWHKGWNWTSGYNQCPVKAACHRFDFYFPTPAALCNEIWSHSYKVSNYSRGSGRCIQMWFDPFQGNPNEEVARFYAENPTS
Sequence of folate receptor protein (FBP) overexpressed on the surface of cancer cells (P15328 25-234): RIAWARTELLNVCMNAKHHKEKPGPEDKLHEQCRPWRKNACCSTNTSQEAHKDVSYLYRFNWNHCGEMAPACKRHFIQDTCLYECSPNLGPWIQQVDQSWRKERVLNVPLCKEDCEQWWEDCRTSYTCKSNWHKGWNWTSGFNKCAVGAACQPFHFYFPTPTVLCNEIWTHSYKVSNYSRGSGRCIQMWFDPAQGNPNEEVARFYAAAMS

With `CNC(=O)CCC(NC(=O)c1ccc(NCc2cnc3nc(N)[nH]c(=O)c3n2)cc1)C(=O)O` (stereo not shown) [Comparative Compound 3], the “Association constant Ka (receptor Caco-2)” value with Caco-2 tumor cells came to 18000 M⁻¹. Also, in series [1], the “Association constant Ka (drug DXR)” value is 2500 M⁻¹. As for `Nc1nc2ncc(CNc3ccc(C(=O)N[C@@H](CCC(=O)O)C(=O)O)cc3)nc2c(=O)[nH]1` [folic acid], the “Association constant for folate receptor protein (FBP)” value in series [2] is on record as 10^10 M^−1.

In the case of `OC[C@H]1O[C@@H]2O[C@H]3[C@H](O)[C@@H](O)[C@@H](O[C@H]4[C@H](O)[C@@H](O)[C@@H](O[C@H]5[C@H](O)[C@@H](O)[C@@H](O[C@H]6[C@H](O)[C@@H](O)[C@@H](O[C@H]7[C@H](O)[C@@H](O)[C@@H](O[C@H]8[C@H](O)[C@@H](O)[C@@H](O[C@H]1[C@H](O)[C@H]2O)O[C@@H]8CO)O[C@@H]7CO)O[C@@H]6CO)O[C@@H]5CO)O[C@@H]4CO)O[C@@H]3CO` [unmodified β-CD, β-cyclodextrin], in series [3], the “Interaction with FBP (SPR response, FIG. 1)” value is recorded as “did not exhibit any interaction properties”.
